The target in one assay is T1, CDK2/A (Homo sapiens, UniProt P24941).
T1 construct: purchased
The experiment in a line: Inhibitory activity to CDK2 (FRET). The format is biochemical. Conditions: 1 × 10^−6 mol/L. The method, then: CDK2/A was purchased in the form of a kit or obtained through purification.
Procedures: CDK2/A is diluted to a suitable concentration with kinase diluent. The kinase reaction mixture contains CDK2/A, peptide substrate, HEPES (pH7.5), BRIJ-35, MgCl2 and EDTA. CDK2 phospho-peptide substrate is used as the control of 100% phosphorylation and ATP-free as the control of 0% phosphorylation. After 1 h, the diluted Development Reagent A is added into the reaction system. Then the reaction is allowed to proceed for 1 h and then quenched with Stop Reagent. […] The inhibitions of the tested compounds are calculated according to the formula.

Another assay has as its target T2, Aurora A (Homo sapiens, UniProt O14965).
T2 construct: purchased
T2 sequence (O14965 1-403): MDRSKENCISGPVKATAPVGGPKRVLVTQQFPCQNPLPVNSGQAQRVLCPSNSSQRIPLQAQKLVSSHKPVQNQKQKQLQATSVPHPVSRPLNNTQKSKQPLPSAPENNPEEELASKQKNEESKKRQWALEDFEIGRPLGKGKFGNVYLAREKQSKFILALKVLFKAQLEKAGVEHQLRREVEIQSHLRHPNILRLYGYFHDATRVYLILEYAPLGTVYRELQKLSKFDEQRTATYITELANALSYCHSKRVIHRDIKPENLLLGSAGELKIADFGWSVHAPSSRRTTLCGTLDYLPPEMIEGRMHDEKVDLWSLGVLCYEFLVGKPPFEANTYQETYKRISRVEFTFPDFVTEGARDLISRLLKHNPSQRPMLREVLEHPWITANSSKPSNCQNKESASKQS
The assay can be described thus: Inhibitory activity to Aurora A (FRET). In kind it is biochemical. Conditions: 1 × 10^−6 mol/L. As to the method: The inhibitory activities of the synthesized compounds for Aurora A is determined by fluorescence resonance energy transfer (FRET) and were compared with the positive control drug so as to screen the compounds with better activities. Aurora A was purchased in the form of a kit or obtained through purification. Procedures: Aurora A is diluted to a suitable concentration with kinase diluent. The kinase reaction mixture contains Aurora A, peptide substrate, HEPES (pH7.5), BRIJ-35, MgCl2 and EDTA. Aurora A phospho-peptide substrate is used as the control of 100% phosphorylation and ATP-free as the control of 0% phosphorylation. After 1 h, the diluted Development Reagent A is added into the reaction system. Then the reaction is allowed to proceed for 1 h and then quenched with Stop Reagent. The excitation wavelength is 400 nm and the fluorescence intensity is detected at 445 nm (coumarin) and 520 nm (fluorescein). The inhibitions of the tested compounds are calculated according to the formula.

Consider `Cc1cc2c(Nc3c[nH]nc3C(=O)Nc3ccc(CN4CCOCC4)cc3)nccc2o1` [Compound I-36, 4-(4-(2-methylfuro[3,2-c]pyridyl)amino)-N-(4-((4-morpholinyl)methyl)phenyl)-1H-3-pyrazolecarboxamide], for which, on CDK2/A, the “CDK2 inhibition % (1 × 10^−6 mol/L)” value was 64.51%. The “Aurora A inhibition % (1 × 10^−6 mol/L)” value at Aurora A was 56.23%.

For the compound `O=C(Nc1ccc(CN2CCOCC2)cc1)c1n[nH]cc1Nc1ncnc2[nH]ccc12` [Compound I-12, 4-(4-(7H-pyrrolo[2,3-d]pyrimidinyl)amino)-N-(4-((4-morpholinyl)methyl)phenyl)-1H-3-pyrazolecarboxamide], on CDK2/A, the “CDK2 inhibition % (1 × 10^−6 mol/L)” value worked out at 66.39%. In addition, the “Aurora A inhibition % (1 × 10^−6 mol/L)” value at Aurora A turned out to be 49.44%.

As for `Cc1sc2ncnc(Nc3c[nH]nc3C(=O)Nc3ccc(CN4CCOCC4)cc3)c2c1C` [Compound I-8, 4-(4-(5,6-dimethylthieno[2,3-d]pyrimidinyl)amino)-N-(4-((4-morpholinyl)methyl)phenyl)-1H-3-pyrazolecarboxamide], the “CDK2 inhibition % (1 × 10^−6 mol/L)” value on CDK2/A is 54.65%. Besides, on Aurora A, the “Aurora A inhibition % (1 × 10^−6 mol/L)” value is listed as 48.49%.

Turning to `O=C(Nc1ccc(CN2CCOCC2)cc1)c1n[nH]cc1Nc1ncnc2cc[nH]c12` [Compound I-18, 4-(4-(5H-pyrrolo[3,2-d]pyrimidinyl)amino)-N-(4-((4-morpholinyl)methyl)phenyl)-1H-3-pyrazolecarboxamide], on CDK2/A, the “CDK2 inhibition % (1 × 10^−6 mol/L)” value was 64.99%. Also, at Aurora A, the “Aurora A inhibition % (1 × 10^−6 mol/L)” value amounted to 53.66%.

For the compound “4-(7-(1H-pyrrolo[2,3-c]pyridyl)amino)-N-(4-((4-morpholinyl)methyl)phenyl)-1H-3-pyrazolecarboxamide [Compound I-44]”, the “CDK2 inhibition % (1 × 10^−6 mol/L)” value on CDK2/A was determined as 75.91%. Moreover, the “Aurora A inhibition % (1 × 10^−6 mol/L)” value at Aurora A was found to be 54.94%.

Regarding `Cc1cc2c(Nc3c[nH]nc3C(=O)Nc3ccc(CN4CCN(C)CC4)cc3)nccc2o1` [Compound I-35, 4-(4-(2-methylfuro[3,2-c]pyridyl)amino)-N-(4-((4-methyl-1-piperazinyl)methyl)phenyl)-1H-3-pyrazolecarboxamide], at CDK2/A, the “CDK2 inhibition % (1 × 10^−6 mol/L)” value amounted to 73.23%. Besides, the “Aurora A inhibition % (1 × 10^−6 mol/L)” value at Aurora A is listed as 55.99%.

Take `CN1CCN(Cc2ccc(NC(=O)c3n[nH]cc3Nc3nccc4occc34)cc2)CC1` [Compound I-33, 4-(4-furo[3,2-c]pyridylamino)-N-(4-((4-methyl-1-piperazinyl)menthyl)phenyl)-1H-3-pyrazolecarboxamide]: the “CDK2 inhibition % (1 × 10^−6 mol/L)” value on CDK2/A came out at 44.93%. The “Aurora A inhibition % (1 × 10^−6 mol/L)” value at Aurora A is on record as 45.08%.

Turning to `Cc1csc2c(Nc3c[nH]nc3C(=O)Nc3ccc(CN4CCN(C)CC4)cc3)nccc12` [Compound I-31, 4-(7-(3-methylthieno[2,3-c]pyridyl)amino)-N-(4-((4-methyl-1-piperazinyl)methyl)phenyl)-1H-3-pyrazolecarboxamide], the “CDK2 inhibition % (1 × 10^−6 mol/L)” value on CDK2/A is listed as 45.34%. Further, on Aurora A, the “Aurora A inhibition % (1 × 10^−6 mol/L)” value is listed as 70.27%.

In the case of `Cc1csc2ncnc(Nc3c[nH]nc3C(=O)Nc3ccc(CN4CCOCC4)cc3)c12` [Compound I-6, 4-(4-(5-methylthieno[2,3-d]pyrimidinyl)amino)-N-(4-((4-morpholinyl)methyl)phenyl)-1H-3-pyrazolecarboxamide], the “CDK2 inhibition % (1 × 10^−6 mol/L)” value on CDK2/A is 60.68%. The “Aurora A inhibition % (1 × 10^−6 mol/L)” value at Aurora A is 54.80%.

Regarding `Cc1cc2c(Nc3c[nH]nc3C(=O)Nc3ccc(CN4CCOCC4)cc3)ncnc2s1` [Compound I-4, 4-(4-(6-methylthieno[2,3-d]pyrimidinyl)amino)-N-(4-((4-morpholinyl)methyl)phenyl)-1H-3-pyrazolecarboxamide], the “CDK2 inhibition % (1 × 10^−6 mol/L)” value at CDK2/A is reported as 52.73%. The “Aurora A inhibition % (1 × 10^−6 mol/L)” value at Aurora A amounted to 64.46%.

`Cc1cc2ccnc(Nc3c[nH]nc3C(=O)Nc3ccc(CN4CCN(C)CC4)cc3)c2[nH]1` [Compound I-45, 4-(7-(2-methyl-1H-pyrrolo[2,3-c]pyridyl)amino)-N-(4-((4-methyl-1-piperazinyl)methyl)phenyl)-1H-3-pyrazolecarboxamide]: on CDK2/A, the “CDK2 inhibition % (1 × 10^−6 mol/L)” value was 60.11%. Besides, the “Aurora A inhibition % (1 × 10^−6 mol/L)” value on Aurora A is 63.21%.

As to `Cc1csc2c(Nc3c[nH]nc3C(=O)Nc3ccc(CN4CCOCC4)cc3)nccc12` [Compound I-32, 4-(7-(3-methylthieno[2,3-c]pyridyl)amino)-N-(4-((4-morpholinyl)methy)phenyl)-1H-3-pyrazolecarboxamide], at CDK2/A, the “CDK2 inhibition % (1 × 10^−6 mol/L)” value is 38.28%. Moreover, the “Aurora A inhibition % (1 × 10^−6 mol/L)” value at Aurora A came to 67.45%.

On to `Cc1cc2ncnc(Nc3c[nH]nc3C(=O)Nc3ccc(CN4CCOCC4)cc3)c2[nH]1` [Compound I-20, 4-(4-(6-methyl-5H-pyrrolo[3,2-d]pyrimidinyl)amino)-N-(4-((4-morpholinyl)methyl)phenyl)-1H-3-pyrazolecarboxamide], for which the “CDK2 inhibition % (1 × 10^−6 mol/L)” value on CDK2/A came out at 62.25%. Moreover, the “Aurora A inhibition % (1 × 10^−6 mol/L)” value on Aurora A is reported as 60.72%.

For `Cc1sc2ncnc(Nc3c[nH]nc3C(=O)Nc3ccc(CN4CCN(C)CC4)cc3)c2c1C` [Compound I-7, 4-(4-(5,6-dimethylthieno[2,3-d]pyrimidinyl)amino)-N-(4-((4-methyl-1-piperazinyl)methyl)phenyl)-1H-3-pyrazolecarboxamide], at CDK2/A, the “CDK2 inhibition % (1 × 10^−6 mol/L)” value was 65.12%. In addition, on Aurora A, the “Aurora A inhibition % (1 × 10^−6 mol/L)” value came out at 54.93%.

With `Cc1cc2c(Nc3c[nH]nc3C(=O)Nc3ccc(CN4CCOCC4)cc3)nccc2s1` [Compound I-28, 4-(4-(2-methylthieno[3,2-c]pyridyl)amino)-N-(4-((4-morpholinyl)methyl)phenyl)-1H-3-pyrazolecarboxamide], the “CDK2 inhibition % (1 × 10^−6 mol/L)” value on CDK2/A came out at 76.91%. The “Aurora A inhibition % (1 × 10^−6 mol/L)” value at Aurora A was determined as 67.63%.

Take `Cc1cc2ccnc(Nc3c[nH]nc3C(=O)Nc3ccc(CN4CCOCC4)cc3)c2[nH]1` [Compound I-46, 4-(7-(2-methyl-1H-pyrrolo[2,3-c]pyridyl)amino)-N-(4-((4-morpholinyl)methyl)phenyl)-1H-3-pyrazolecarboxamide]: the “CDK2 inhibition % (1 × 10^−6 mol/L)” value at CDK2/A is 68.57%. Further, the “Aurora A inhibition % (1 × 10^−6 mol/L)” value at Aurora A is given as 60.73%.

Consider `Cc1csc2ncnc(Nc3c[nH]nc3C(=O)Nc3ccc(CN4CCN(C)CC4)cc3)c12` [Compound I-5, 4-(4-(5-methylthieno[2,3-d]pyrimidinyl)amino)-N-(4-((4-methyl-1-piperazinyl)methyl)phenyl)-1H-3-pyrazolecarboxamide], for which, at CDK2/A, the “CDK2 inhibition % (1 × 10^−6 mol/L)” value was 51.24%. For the same compound, on Aurora A, the “Aurora A inhibition % (1 × 10^−6 mol/L)” value is 58.62%.

As for `Cc1cc2c(Nc3c[nH]nc3C(=O)Nc3ccc(CN4CCOCC4)cc3)ncnc2[nH]1` [Compound I-14, 4-(4-(6-methyl-7H-pyrrolo[2,3-d]pyrimidinyl)amino)-N-(4-((4-morpholinyl)methyl)phenyl)-1H-3-pyrazolecarboxamide], the “CDK2 inhibition % (1 × 10^−6 mol/L)” value on CDK2/A is 65.78%. The “Aurora A inhibition % (1 × 10^−6 mol/L)” value on Aurora A is recorded as 66.26%.

Take `CN1CCN(Cc2ccc(NC(=O)c3n[nH]cc3Nc3nccc4cc[nH]c34)cc2)CC1` [Compound I-43, 4-(7-(1H-pyrrolo[2,3-c]pyridyl)amino)-N-(4-((4-methyl-1-piperazinyl)methyl)phenyl)-1H-3-pyrazolecarboxamide]: the “CDK2 inhibition % (1 × 10^−6 mol/L)” value at CDK2/A is 76.09%. In addition, on Aurora A, the “Aurora A inhibition % (1 × 10^−6 mol/L)” value worked out at 55.02%.

These data come from patent US9550792B2, “Polycyclic substituted pyrazole kinase activity inhibitors and use thereof” (priority 2013, dated 2017).
